Broadly, the half-life is the time in which the quantity being followed falls by half.

We go through four substances from patent US12521437B2 (Synthorx, Inc., priority 2019, dated 2026).

The test system of one data set is NK cells. Put plainly: pSTAT5 signaling in human LRS-derived PBMC samples, NK cells (flow cytometry). The data set is classed as cell-based. Conditions: Table 13 (Example 11). The procedure: (§1) These studies were performed at PrimityBio LLC (Fremont, CA). […] Staining panel for flow cytometry study of LRS-derived PBMC samples include markers for Effector T cells (Teff: CD3+, CD4+, CD8+, CD127+), NK cells (CD3-, CD16+), and Regulatory T cells (Treg: CD3+, CD4+, CD8-, IL-2Rα+, CD127-1).
(§2) Conjugates of Table 13 were synthesized by modification of SEQ NO. 1. These studies were performed at PrimityBio LLC (Fremont, CA).

In a further data set the test system is CD8+ T cells. The data set can be described thus: pSTAT5 signaling in human LRS-derived PBMC samples, CD8+ T cells (flow cytometry). It counts as cell-based. The following applies: Table 13 (Example 11). The procedure:
as §1
(§3) These studies were performed at PrimityBio LLC (Fremont, CA). […] Staining panel for flow cytometry study of LRS-derived PBMC samples include markers CD4, CD4+ memory central, CD4+ memory effect, CD4+ memory T cells, CD4+ Naive T cells, CD4+ T cells, CD8, CD8+ memory central, CD8+ memory effect, CD8+ memory T cells, CD8+ Naive T cells, CD8+ T cells, NK cells, and T regulatory cells.
as §2
(Flow cytometry measures light scatter and fluorescence of single cells or particles in a stream.)

The test system of another data set is CTLL-2. The data set can be described thus: CTLL-2 proliferation. It counts as cell-based, mouse. Conditions: Table 13 (Example 11).
For a further data set, the system named is Treg cells. Put plainly: pSTAT5 signaling in human LRS-derived PBMC samples, Treg cells (flow cytometry). The data set is classed as cell-based. Conditions: for EC50 for pSTAT5 signaling, Treg cells: Table 13 (Example 11); for Fold increase in Treg EC50 vs native IL-2: compared to native IL-2 run in each individual experiment. As to the method: as §1, §3, §2

For data set [1] the following is noted: human transferrin; cited from earlier work.

Regarding “N88R/D109_30kD: IL-2 variant with N88R substitution and 30 kD PEG at D109”, the “EC50 for pSTAT5 signaling, NK cells” value in the data set with NK cells amounted to 2780819 pg/ml. For the same substance, in the data set with CD8+ T cells, the “CD8+/Treg ratio” value amounted to 71 and the “EC50 for pSTAT5 signaling, CD8+ Tcells” value was 12503386 pg/ml. Further, the “EC50 CTLL-2 proliferation” value in the data set on CTLL-2 turned out to be 59577 pg/mL. In addition, in the data set with Treg cells, the “EC50 for pSTAT5 signaling, Treg cells” value is 175805 pg/ml and the “Fold increase in Treg EC50 vs native IL-2” value (“Fold increase in Treg EC50” below) was found to be 3663.
For the substance “N88R: IL-2 variant with N88R substitution [reference compound]”, the “EC50 for pSTAT5 signaling, NK cells” value in the data set with NK cells is reported as 2312847 pg/ml. In the data set with CD8+ T cells, the “CD8+/Treg ratio” value is recorded as 1356 and the “EC50 for pSTAT5 signaling, CD8+ Tcells” value turned out to be 15025734 pg/ml. The “EC50 CTLL-2 proliferation” value in the data set with CTLL-2 was 363 pg/mL. Also, in the data set with Treg cells, the “EC50 for pSTAT5 signaling, Treg cells” value worked out at 11082 pg/ml and the “Fold increase in Treg EC50” value is reported as 148.
Turning to “V91K: IL-2 variant with V91K substitution [reference compound]”, the “EC50 for pSTAT5 signaling, NK cells” value in the data set on NK cells amounted to 20537 pg/ml. Moreover, in the data set on CD8+ T cells, the “CD8+/Treg ratio” value stood at 720 and the “EC50 for pSTAT5 signaling, CD8+ Tcells” value worked out at 102255 pg/ml. In the data set with CTLL-2, the “EC50 CTLL-2 proliferation” value turned out to be 99.5 pg/mL. Also, in the data set with Treg cells, the “EC50 for pSTAT5 signaling, Treg cells” value is reported as 142 pg/ml and the “Fold increase in Treg EC50” value worked out at 3.
For the substance “human transferrin: 679 amino acid polypeptide that is about 80 kDa in size and comprises two Fe^3+ binding sites”, the half-life in data set [1] was 7 to 12 days.
